The subject of assay [1] is leukotriene pathway in human whole blood (LTB4 levels). Briefly: Human whole blood assay (LTB4). It counts as cell-based. The settings on record: human whole blood diluted 1:1 in RPMI, stimulated with calcium ionophore A23187; single replicate. How it is done: The ability of the compounds of the present invention to treat a FLAP-mediated disease and/or disorder, or associated symptoms or complications thereof, was determined using the following procedures. Binding assay data represent the average value obtained from two different assay plates, with samples run in duplicate on each plate. Human whole blood assay data represent a single replicate on an assay plate using whole blood from at least one healthy donor.
An in vitro cellular assay was performed using human whole blood collected in heparin-containing tubes, which was used to test the ability of compounds to modulate the leukotriene pathway in human whole blood. The blood was diluted 1:1 in RPMI medium, pre-incubated for 15 min at 37° Celsius with test compounds at various concentrations, and then stimulated with calcium ionophore, A23187 (7 μg/mL), for 30 min at 37° Celsius. The samples were then centrifuged and plasma was removed. The plasma was diluted in assay buffer and LTB4 levels were measured using a commercial kit (Enzo Life Sciences). The concentration of each compound that was required for half-maximal inhibition (modulation) of recombinant enzyme activity (IC50) was calculated by a 4-parameter equation using the program GraphPad Prism (GraphPad software).

The target of a further assay is human FLAP (Homo sapiens (Human), UniProt P20292). Briefly: FLAP binding assay (HTRF). The settings on record: human FLAP-containing membranes, HTRF format; average of two assay plates, duplicates; read-out: FLAP Binding wild type HTRF Ki. The essentials:
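Averaged over two plates (duplicate wells per plate); output given as HTRF ratio.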

pIC50, pKi: −log10 of the molar value.

Chain of human FLAP (P20292 whole entry): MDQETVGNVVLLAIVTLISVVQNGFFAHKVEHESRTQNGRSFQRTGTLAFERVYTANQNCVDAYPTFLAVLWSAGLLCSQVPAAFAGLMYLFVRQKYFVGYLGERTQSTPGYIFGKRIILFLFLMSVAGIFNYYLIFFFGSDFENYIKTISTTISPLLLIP

`Nc1cnc(-c2ccc(C3CCC3)c(OCC(O)Cn3ncccc3=O)c2F)cn1` (racemic) [Example 53, racemic 2-(3-(3-(5-Aminopyrazin-2-yl)-6-cyclobutyl-2-fluorophenoxy)-2-hydroxypropyl)pyridazin-3(2H)-one]: the pIC50 (in general, −log10 of the IC50, conventionally taken in molar units) in assay [1] is 6.19. For the same molecule, the pKi (usually −log10 of the Ki, conventionally taken in molar units) on human FLAP is 6.86.
For `Nc1cnc(-c2ccc(C3CCC3)c(OCC(O)Cn3ccncc3=O)c2F)cn1` (racemic) [Example 54, racemic 1-(3-(3-(5-Aminopyrazin-2-yl)-6-cyclobutyl-2-fluorophenoxy)-2-hydroxypropyl)pyrazin-2(1H)-one], in that order: 6.04 and 6.53.
The like results for `Nc1cnc(-c2ccc(C3CCC3)c(OCC(O)CNc3cncnc3)c2F)cn1` (racemic) [Example 55, racemic 1-(3-(5-Aminopyrazin-2-yl)-6-cyclobutyl-2-fluorophenoxy)-3-(pyrimidin-5-ylamino)propan-2-ol] were, in that order, 6.26 and 6.82.
For `Nc1cnc(-c2ccc(C3CCC3)c(OCC(O)CNc3cnccn3)c2F)cn1` (racemic) [Example 57, racemic 1-(3-(5-Aminopyrazin-2-yl)-6-cyclobutyl-2-fluorophenoxy)-3-(pyrazin-2-ylamino)propan-2-ol], in that order: 6.46 and 7.44.
For `Nc1cnc(NCC(O)COc2c(C3CCC3)ccc(-c3cnc(N)cn3)c2F)nc1` (racemic) [Example 58, racemic 1-(3-(5-Aminopyrazin-2-yl)-6-cyclobutyl-2-fluorophenoxy)-3-((5-aminopyrimidin-2-yl)amino)propan-2-ol], in assay [1], the pIC50 was 6.43. Further, the pKi on human FLAP is 7.52.
The like results for `Nc1cnc(-c2ccc(C3CCC3)c(OCC(O)CNc3cc(N)ncn3)c2F)cn1` (racemic) [Example 59, racemic 1-(3-(5-Aminopyrazin-2-yl)-6-cyclobutyl-2-fluorophenoxy)-3-((6-aminopyrimidin-4-yl)amino)propan-2-ol] were, in that order, 5.81 and 6.49.
Regarding `Nc1cnc(-c2ccc(C3CCC3)c(OCC(O)Cn3ccnc3)c2F)cn1` (racemic) [Example 61, racemic 1-(3-(5-Aminopyrazin-2-yl)-6-cyclobutyl-2-fluorophenoxy)-3-(1H-imidazol-1-yl)propan-2-ol], the pIC50 in assay [1] is 6.16. For the same molecule, the pKi at human FLAP was 6.58.
Take `Nc1cnc(-c2ccc(C3CCC3)c(OCC(O)Cn3cncn3)c2F)cn1` (racemic) [Example 62, racemic 1-(3-(5-Aminopyrazin-2-yl)-6-cyclobutyl-2-fluorophenoxy)-3-(1H-1,2,4-triazol-1-yl)propan-2-ol]: the pIC50 in assay [1] was 6.08. In addition, the pKi at human FLAP was 6.50.
The like results for `Nc1cnc(-c2ccc(C3CCC3)c(OCC(O)Cn3ccnn3)c2F)cn1` (racemic) [Example 63, racemic 1-(3-(5-Aminopyrazin-2-yl)-6-cyclobutyl-2-fluorophenoxy)-3-(1H-1,2,3-triazol-1-yl)propan-2-ol] were, in that order, 6.67 and 6.92.
On to `Nc1cnc(-c2ccc(C3CCC3)c(OCC(O)Cn3nccn3)c2F)cn1` (racemic) [Example 64, racemic 1-(3-(5-Aminopyrazin-2-yl)-6-cyclobutyl-2-fluorophenoxy)-3-(2H-1,2,3-triazol-2-yl)propan-2-ol], for which the pIC50 in assay [1] is 6.56. For the same molecule, at human FLAP, the pKi was 7.07.
For `Nc1cnc(-c2ccc(C3CCC3)c(OCC(O)Cn3nncc3N)c2F)cn1` (racemic) [Example 66, racemic 1-(5-Amino-1H-1,2,3-triazol-1-yl)-3-(3-(5-aminopyrazin-2-yl)-6-cyclobutyl-2-fluorophenoxy)propan-2-ol], in that order: 6.12 and 6.37.
For `Nc1cnc(-c2ccc(C3CCC3)c(OCC(O)CN3CCOCC3)c2F)cn1` (racemic) [Example 255, 1-(3-(5-aminopyrazin-2-yl)-6-cyclobutyl-2-fluorophenoxy)-3-morpholinopropan-2-ol], in that order: 5.94 and 5.94.
Regarding `Nc1cnc(-c2ccc(C3CCC3)c(OCC(O)CN3CCS(=O)(=O)CC3)c2F)cn1` (racemic) [Example 256, 4-(3-(3-(5-Aminopyrazin-2-yl)-6-cyclobutyl-2-fluorophenoxy)-2-hydroxypropyl)thiomorpholine 1,1-dioxide], in assay [1], the pIC50 was 6.14. Also, the pKi on human FLAP was 6.36.
In the case of `Nc1cnc(-c2ccc(C3CCC3)c(OCC(O)Cn3c(=O)[nH]c4ccccc43)c2F)cn1` (racemic) [Example 311, racemic 1-{3-[3-(5-Aminopyrazin-2-yl)-6-cyclobutyl-2-fluorophenoxy]-2-hydroxypropyl}-1,3-dihydro-2H-benzimidazol-2-one], in assay [1], the negative-log IC50 (pIC50) is 6.96. Also, the pKi at human FLAP was 8.09.
For `COc1c(C2CCC2)ccc(-c2cnc(N)cn2)c1F` [A, 5-(4-Cyclobutyl-2-fluoro-3-methoxyphenyl)pyrazin-2-amine], in that order: 6.27 and 7.19.
As for `Nc1cnc(-c2ccc(C3CCC3)c(O)c2F)cn1` [B, 3-(5-Aminopyrazin-2-yl)-6-cyclobutyl-2-fluorophenol], the pIC50 in assay [1] was 6.02. On human FLAP, the pKi is 6.45.
The like results for `Nc1cnc(-c2ccc(C3CCC3)c(OCc3ccc(C(F)(F)F)cc3)c2F)cn1` [Example 1, 5-(4-Cyclobutyl-2-fluoro-3-{[4-(trifluoromethyl)benzyl]oxy}phenyl)-pyrazin-2-amine] were, in that order, 6.23 and 6.54.
Regarding `Nc1cnc(-c2ccc(C3CCC3)c(OCc3cccc(C(F)(F)F)c3)c2F)cn1` [Example 2, 5-(4-Cyclobutyl-2-fluoro-3-{[3-(trifluoromethyl)benzyl]oxy}phenyl)-pyrazin-2-amine], in assay [1], the pIC50 is 6.28. Further, the pKi on human FLAP was 6.80.
The like results for `Nc1cnc(-c2ccc(C3CCC3)c(OCc3ccccc3C(F)(F)F)c2F)cn1` [Example 3, 5-(4-Cyclobutyl-2-fluoro-3-{[2-(trifluoromethyl)benzyl]oxy}phenyl)-pyrazin-2-amine] were, in that order, 6.57 and 6.60.
As to `Nc1cnc(-c2ccc(C3CCC3)c(OCc3cccc(C(=O)O)c3)c2F)cn1` [Example 4, 3-{[3-(5-Aminopyrazin-2-yl)-6-cyclobutyl-2-fluorophenoxy]methyl}benzoic acid], the pIC50 in assay [1] was 6.53. Moreover, the pKi at human FLAP is 8.40.
For the molecule `Nc1cnc(-c2ccc(C3CCC3)c(OCc3ccc(C(=O)O)cc3)c2F)cn1` [Example 5, 4-{[3-(5-Aminopyrazin-2-yl)-6-cyclobutyl-2-fluorophenoxy]methyl}benzoic acid], the pIC50 in assay [1] was 6.58. Further, the pKi at human FLAP was 7.96.
In the case of `CS(=O)(=O)c1ccc(COc2c(C3CCC3)ccc(-c3cnc(N)cn3)c2F)cc1` [Example 7, 5-(4-Cyclobutyl-2-fluoro-3-{[4-(methylsulfonyl)benzyl]oxy}phenyl)-pyrazin-2-amine], the pIC50 in assay [1] is 5.85. Besides, at human FLAP, the negative logarithm of the Ki (pKi) is 8.15.
Take `Nc1cnc(-c2ccc(C3CCC3)c(OCc3cccnc3)c2F)cn1` [Example 13, 5-[4-Cyclobutyl-2-fluoro-3-(pyridin-3-ylmethoxy)phenyl]pyrazin-2-amine]: in assay [1], the pIC50 is 5.89. The negative logarithm of the Ki (pKi) at human FLAP was 6.60.
The like results for `Nc1cnc(-c2ccc(C3CCC3)c(OCc3ccncc3)c2F)cn1` [Example 14, 5-[4-Cyclobutyl-2-fluoro-3-(pyridin-4-ylmethoxy)phenyl]pyrazin-2-amine] were, in that order, 5.64 and 6.91.
As for `N#Cc1ccc(COc2c(C3CCC3)ccc(-c3cnc(N)cn3)c2F)cc1` [Example 15, 4-{[3-(5-Aminopyrazin-2-yl)-6-cyclobutyl-2-fluorophenoxy]methyl}benzonitrile], the pIC50 in assay [1] is 5.91. Moreover, at human FLAP, the pKi is 6.71.
As to `N#Cc1cccc(COc2c(C3CCC3)ccc(-c3cnc(N)cn3)c2F)c1` [Example 16, 3-{[3-(5-Aminopyrazin-2-yl)-6-cyclobutyl-2-fluorophenoxy]methyl}benzonitrile], the pIC50 in assay [1] is 6.33. At human FLAP, the pKi was 7.01.
The like results for `NC(=O)c1cccc(COc2c(C3CCC3)ccc(-c3cnc(N)cn3)c2F)c1` [Example 17, 3-{[3-(5-Aminopyrazin-2-yl)-6-cyclobutyl-2-fluorophenoxy]methyl}benzamide] were, in that order, 6.56 and 7.80.
Consider `N#Cc1ccccc1COc1c(C2CCC2)ccc(-c2cnc(N)cn2)c1F` [Example 18, 2-{[3-(5-Aminopyrazin-2-yl)-6-cyclobutyl-2-fluorophenoxy]methyl}benzonitrile], for which, in assay [1], the pIC50 is 5.93. On human FLAP, the pKi was 6.92.
The like results for `NC(=O)c1ccccc1COc1c(C2CCC2)ccc(-c2cnc(N)cn2)c1F` [Example 19, 2-{[3-(5-Aminopyrazin-2-yl)-6-cyclobutyl-2-fluorophenoxy]methyl}benzamide] were, in that order, 6.09 and 7.00.
The like results for `Nc1cnc(-c2ccc(C3CCC3)c(OCc3ccc(-c4nnn[nH]4)cc3)c2F)cn1` [Example 20, 5-(4-Cyclobutyl-2-fluoro-3-{[4-(1H-tetrazol-5-yl)benzyl]oxy}phenyl)pyrazin-2-amine] were, in that order, less than 5.00 and 8.30.

These data come from patent US9073876B2, “Flap modulators” (JANSSEN PHARMACEUTICA NV, priority 2013, dated 2015).
